Test results as given in the supplement of paper PMC10307832.

How the values were obtained:
Assay in all cases: relative viability (nuclei count vs DMSO), 5 days (fraction); higher = more cells survive
[1] = test system: NCI-H1703
Method in brief: (§1)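 Lung cancer cell lines were seeded in 1536-well plates and dosed by pin tool the next day, with either a single drug or a fixed anchor-drug dose combined with five library-drug doses (not always all listed) spaced in √10 steps. Five days later, one step fixed the cells and stained their nuclei (final 0.05% Triton X-100, 1% formaldehyde, 1 ug/ml Hoechst), and nuclei were counted on 4× images. Relative viability is the nuclei count in treated wells divided by the count in vehicle wells, and each value is the median of duplicate plates.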

[2] = test system: ABC-1
Method in brief: as §1

[3] = test system: NCI-H1651
Method in brief: as §1

[4] = test system: NCI-H1648
Method in brief: as §1

[5] = test system: NCI-H1437
Method in brief: as §1

[6] = test system: ChaGo-K-1
Method in brief: as §1

[7] = test system: SW 1573
Method in brief: as §1

[8] = test system: A549
Method in brief: as §1

[9] = test system: COR-L23
Method in brief: as §1

[10] = test system: SK-MES-1
Method in brief: as §1

Cc1sc2c(c1C)C(c1ccc(Cl)cc1)=N[C@@H](CC(=O)OC(C)(C)C)c1nnc(C)n1-2 [JQ1] + NC(=O)Nc1cc(-c2cccc(F)c2)sc1C(=O)N[C@H]1CCCNC1 [AZD7762] (partner 0.2 µM)
relative viability ([1]; first compound 0.04 µM): 0.111
relative viability ([1]; first compound 0.1265 µM): 0.13
relative viability ([1]; first compound 0.4 µM): 0.155
relative viability ([1]; first compound 1.265 µM): 0.108
relative viability ([1]; first compound 4 µM): 0.118
relative viability ([2]; first compound 0.04 µM): 0.854
relative viability ([2]; first compound 0.1265 µM): 0.803
relative viability ([2]; first compound 0.4 µM): 0.95
relative viability ([2]; first compound 1.265 µM): 0.596
relative viability ([2]; first compound 4 µM): 0.529
relative viability ([3]; first compound 0.04 µM): 0.538
relative viability ([3]; first compound 0.1265 µM): 0.45
relative viability ([3]; first compound 0.4 µM): 0.427
relative viability ([3]; first compound 1.265 µM): 0.421
relative viability ([3]; first compound 4 µM): 0.419
relative viability ([4]; first compound 0.04 µM): 0.862
relative viability ([4]; first compound 0.1265 µM): 0.906
relative viability ([4]; first compound 0.4 µM): 0.579
relative viability ([4]; first compound 1.265 µM): 0.376
relative viability ([4]; first compound 4 µM): 0.388
relative viability ([5]; first compound 0.04 µM): 1.11
relative viability ([5]; first compound 0.1265 µM): 0.979
relative viability ([5]; first compound 0.4 µM): 0.847
relative viability ([5]; first compound 1.265 µM): 0.657
relative viability ([5]; first compound 4 µM): 0.445
relative viability ([6]; first compound 0.04 µM): 0.875
relative viability ([6]; first compound 0.1265 µM): 0.89
relative viability ([6]; first compound 0.4 µM): 0.899
relative viability ([6]; first compound 1.265 µM): 0.821
relative viability ([6]; first compound 4 µM): 0.536

Cc1sc2c(c1C)C(c1ccc(Cl)cc1)=N[C@@H](CC(=O)OC(C)(C)C)c1nnc(C)n1-2 [JQ1] + Nc1ncn([C@H]2C[C@H](O)[C@@H](CO)O2)c(=O)n1 [Decitabine] (partner 2 µM)
relative viability ([7]; first compound 0.04 µM): 0.366
relative viability ([7]; first compound 0.1265 µM): 0.443
relative viability ([7]; first compound 0.4 µM): 0.393
relative viability ([7]; first compound 1.265 µM): 0.216
relative viability ([7]; first compound 4 µM): 0.275
relative viability ([8]; first compound 0.04 µM): 0.275
relative viability ([8]; first compound 0.1265 µM): 0.267
relative viability ([8]; first compound 0.4 µM): 0.378
relative viability ([8]; first compound 1.265 µM): 0.405
relative viability ([8]; first compound 4 µM): 0.252
relative viability ([9]; first compound 0.04 µM): 0.421
relative viability ([9]; first compound 0.1265 µM): 0.351
relative viability ([9]; first compound 0.4 µM): 0.387
relative viability ([9]; first compound 1.265 µM): 0.272
relative viability ([9]; first compound 4 µM): 0.332
relative viability ([2]; first compound 0.04 µM): 1.19
relative viability ([2]; first compound 0.1265 µM): 0.889
relative viability ([2]; first compound 0.4 µM): 0.691
relative viability ([2]; first compound 1.265 µM): 0.837
relative viability ([2]; first compound 4 µM): 0.582
relative viability ([3]; first compound 0.04 µM): 0.651
relative viability ([3]; first compound 0.1265 µM): 0.487
relative viability ([3]; first compound 0.4 µM): 0.442
relative viability ([3]; first compound 1.265 µM): 0.524
relative viability ([3]; first compound 4 µM): 0.411
relative viability ([4]; first compound 0.04 µM): 0.497
relative viability ([4]; first compound 0.1265 µM): 0.652
relative viability ([4]; first compound 0.4 µM): 0.409
relative viability ([4]; first compound 1.265 µM): 0.398
relative viability ([4]; first compound 4 µM): 0.286
relative viability ([10]; first compound 0.04 µM): 0.347
relative viability ([10]; first compound 0.1265 µM): 0.385
relative viability ([10]; first compound 0.4 µM): 0.315
relative viability ([10]; first compound 1.265 µM): 0.194
relative viability ([10]; first compound 4 µM): 0.216
relative viability ([5]; first compound 0.04 µM): 0.544
relative viability ([5]; first compound 0.1265 µM): 0.577
relative viability ([5]; first compound 0.4 µM): 0.55
relative viability ([5]; first compound 1.265 µM): 0.486
relative viability ([5]; first compound 4 µM): 0.37
relative viability ([6]; first compound 0.04 µM): 0.552
relative viability ([6]; first compound 0.1265 µM): 0.472
relative viability ([6]; first compound 0.4 µM): 0.539
relative viability ([6]; first compound 1.265 µM): 0.392
relative viability ([6]; first compound 4 µM): 0.36
